Results on 18 compounds are retold here after patent US4199573A, “Diazaborines and drug compositions” (Grunenthal GmbH, priority 1978, dated 1980).

The subject of experiment [1] is Klebsiella aeruginosa. Put plainly: Minimum inhibitory concentration, Klebsiella aeruginosa. The class given is cell-based.
The subject of experiment [2] is E. coli. Put plainly: Minimum inhibitory concentration, E. coli. The format is cell-based. To be noted: Escherichia coli.
The subject of experiment [3] is Proteus mirabilis. In words: Minimum inhibitory concentration, Proteus mirabilis. The class given is cell-based.
Experiment [4] has as its system Proteus vulgaris. In words: Minimum inhibitory concentration, Proteus vulgaris. The format is cell-based.
Another experiment relates to S. typhimurium. In words: Minimum inhibitory concentration, S. typhimurium. The class given is cell-based. To be noted: Salmonella enterica.
The test system of experiment [5] is E. coli. In words: Mice infected with E. coli, CD50 (Tables I, II, IV). The class given is in vivo. To be noted: Escherichia coli. How it is done: (§1) Typical of the compounds of the class are very active antimicrobial agents, especially against gram-negative bacteria, in particular E. coli. For instance, the following values of the CD50 were determined on administering the listed compounds of formula I, in which R1 is as defined in the following Table I, Antimicrobial Activity, R2 and R3 are hydrogen and wherein R4 is sodium to mice infected with the bacteria shown.
(§2) CD50 = Dose in mg of compound/kg of mouse body weight which cures th
(§3) infection in 50% of the animals

For experiment [6], the system named is Klebsiella aeruginosa. Put plainly: Mice infected with Klebsiella aeruginosa, CD50 (Table II). The format is in vivo. The conditions noted are these: read-out: DC50 (the source's name).
Source text: as §2, §3

Experiment [7] concerns Proteus vulgaris. In words: Mice infected with Proteus vulgaris, CD50 (Table II). The format is in vivo. To be noted: read-out: DC50 (the source's name).
Source text: as §2, §3

In experiment [8] the test system is Proteus mirabilis. Put plainly: Mice infected with Proteus mirabilis, CD50 (Table II). To be noted: read-out: DC50 (the source's name). The format is in vivo.
Source text: as §2, §3

For another experiment, the system named is Klebsiella pneumoniae. In words: Mice infected with Klebsiella pneumoniae, CD50. The format is in vivo. How it is done:
as §1, §2, §3
(§4) The compounds of the invention also show effectiveness against other gram-negative bacteria.

The subject of another experiment is B. proteus. In words: Mice infected with B. proteus, CD50. The class given is in vivo. The conditions noted are these: Mus musculus. On the procedure:
as §1, §2, §3, §4

[9] abbreviates: po, Table I, mice infected with E. coli, p.o., R4 = sodium, read-out: CD50 (the source's name).
Where [10] appears, read: sc, Table I, mice infected with E. coli, s.c., R4 = sodium, read-out: CD50 (the source's name).
Setting [11] is: sc, Table II, infected mice, E. coli, s.c., read-out: DC50 (the source's name).

The structures appear in SMILES notation. In brackets after ≈: the same amount, converted by molar mass. Read-outs that look alike come from different tables or passages of the source.

In the case of `CCCS(=O)(=O)N1N=Cc2cc(CC)ccc2B1O` [CH2CH2CH3, C2 H5], the MIC (usually the smallest concentration in the dilution series that meets the test's criterion for growth inhibition) was found to be 1 µg/mL (≈ 3.57 µM) with Klebsiella aeruginosa [1]; 4 µg/mL (≈ 14.3 µM) against E. coli [2]; 8 µg/mL (≈ 28.6 µM) against Proteus mirabilis [3]; 2 µg/mL (≈ 7.14 µM) with Proteus vulgaris [4]; 2 µg/mL (≈ 7.14 µM) against S. typhimurium.

Take `O=S(=O)(CCCCl)N1N=Cc2ccccc2B1O` [Compound 9]: the ED50 in the experiment with E. coli [5] (setting [9]) is 22.7 mg/kg; in the experiment on E. coli [5] (setting [10]) it was 21.8 mg/kg.

Take `C=CCS(=O)(=O)N1N=Cc2ccccc2B1O` [Compound 6]: the ED50 with E. coli [5] (setting [9]) and in the experiment on E. coli [5] (setting [10]) was 13.2 mg/kg in each case.

For the compound `CCCCS(=O)(=O)N1N=Cc2ccccc2B1O` [Compound 4], the ED50 with E. coli [5] (setting [9]) came to 11.2 mg/kg; in the experiment on E. coli [5] (setting [10]), 5.85 mg/kg.

For the compound `CCCS(=O)(=O)N1N=Cc2cc(F)ccc2B1O` [Compound 11], the ED50 in the experiment with Klebsiella aeruginosa [6] (po) worked out at 5.65 mg/kg; in the experiment on Klebsiella aeruginosa [6] (sc), 4.25 mg/kg; with Proteus vulgaris [7] (po), 13.9 mg/kg; with Proteus vulgaris [7] (sc), 7.45 mg/kg; in the experiment with Proteus mirabilis [8] (po), 13.9 mg/kg; in the experiment on Proteus mirabilis [8] (sc) it was 7.45 mg/kg. Further, the ED50 in the experiment with E. coli [5] (po, read-out: DC50) came out at 6.95 mg/kg; in the experiment on E. coli [5] (setting [11]), 5.65 mg/kg. Moreover, the MIC in the experiment with Klebsiella aeruginosa [1] was 8 µg/mL (≈ 29.6 µM); with E. coli [2], 4 µg/mL (≈ 14.8 µM); against Proteus mirabilis [3] it was 4 µg/mL (≈ 14.8 µM); in the experiment on Proteus vulgaris [4] it was 4 µg/mL (≈ 14.8 µM); with S. typhimurium, 8 µg/mL (≈ 29.6 µM).

On to `CC(C)CS(=O)(=O)N1N=Cc2ccccc2B1O` [drawing 2], for which the ED50 in the experiment with E. coli [5] (po, read-out: CD50) came out at 8.85 mg/kg; in the experiment with E. coli [5] (sc, read-out: CD50) it was 10.6 mg/kg.

As for `CCCCCS(=O)(=O)N1N=Cc2ccccc2B1O` [(CH2)4CH3, H], the MIC came out at 8 µg/mL (≈ 28.6 µM) in the experiment on Klebsiella aeruginosa [1]; 32 µg/mL (≈ 114 µM) against E. coli [2]; 32 µg/mL (≈ 114 µM) in the experiment with Proteus mirabilis [3]; 32 µg/mL (≈ 114 µM) in the experiment on Proteus vulgaris [4]; 16 µg/mL (≈ 57.1 µM) in the experiment with S. typhimurium.

As for `CCS(=O)(=O)N1N=Cc2ccccc2B1O` [Compound 1], the ED50 in the experiment on E. coli [5] (setting [9]) turned out to be 11 mg/kg; with E. coli [5] (setting [10]), 9.8 mg/kg.

Consider `CCc1ccc2c(c1)C=NN(S(=O)(=O)CCCCl)B2O` [CH2CH2CH2Cl, C2 H5], for which the MIC against Klebsiella aeruginosa [1] was found to be 2 µg/mL (≈ 6.36 µM); with E. coli [2], 4 µg/mL (≈ 12.7 µM); in the experiment with Proteus mirabilis [3], 2 µg/mL (≈ 6.36 µM); in the experiment on Proteus vulgaris [4], 4 µg/mL (≈ 12.7 µM); in the experiment with S. typhimurium, 2 µg/mL (≈ 6.36 µM).

Regarding `Nc1ccc(S(=O)(=O)N2N=Cc3ccccc3B2O)c(Cl)c1` [1-hydroxy-2(2'-chloro-4'-amino-phenylsulfonyl) benzo-2,3,1-diazaborine, reference compound], the ED50 amounted to 36 mg/kg with E. coli [5] (po, Table IV, comparative, E. coli, p.o., read-out: CD50 (the source's name)) and 13.5 mg/kg in the experiment on E. coli [5] (sc, Table IV, comparative, E. coli, s.c., read-out: CD50 (the source's name)).

In the case of `Cc1ccc2c(c1)C=NN(S(=O)(=O)CCCCl)B2O` [Compound 10], the ED50 in the experiment on Klebsiella aeruginosa [6] (po) was determined as 9.15 mg/kg; in the experiment with Klebsiella aeruginosa [6] (sc), 6.95 mg/kg; with Proteus vulgaris [7] (po), 8.6 mg/kg; with Proteus vulgaris [7] (sc), 8.4 mg/kg; in the experiment on Proteus mirabilis [8] (po), 9.15 mg/kg; with Proteus mirabilis [8] (sc), 7.45 mg/kg. Further, the ED50 in the experiment with E. coli [5] (po, read-out: DC50) came out at 9.8 mg/kg; in the experiment on E. coli [5] (setting [11]), 8.8 mg/kg. Besides, the minimum inhibitory concentration (MIC) is 1 µg/mL (≈ 3.33 µM) with Klebsiella aeruginosa [1]; 2 µg/mL (≈ 6.65 µM) in the experiment with E. coli [2]; 4 µg/mL (≈ 13.3 µM) in the experiment with Proteus mirabilis [3]; 4 µg/mL (≈ 13.3 µM) against Proteus vulgaris [4]; 1 µg/mL (≈ 3.33 µM) against S. typhimurium.

Consider `O=S(=O)(CCCCl)N1N=Cc2cc(F)ccc2B1O` [CH2CH2CH2 Cl, F], for which the MIC with Klebsiella aeruginosa [1] amounted to 8 µg/mL (≈ 26.3 µM); against E. coli [2], 16 µg/mL (≈ 52.5 µM); against Proteus mirabilis [3], 16 µg/mL (≈ 52.5 µM); against Proteus vulgaris [4] it was 8 µg/mL (≈ 26.3 µM); against S. typhimurium, 4 µg/mL (≈ 13.1 µM).

On to `Cc1ccc2c(c1)C=NN(S(=O)(=O)CC(C)C)B2O`, for which the MIC worked out at 2 µg/mL (≈ 7.14 µM) in the experiment on Klebsiella aeruginosa [1]; 2 µg/mL (≈ 7.14 µM) against E. coli [2]; 8 µg/mL (≈ 28.6 µM) against Proteus mirabilis [3]; 4 µg/mL (≈ 14.3 µM) against Proteus vulgaris [4]; 8 µg/mL (≈ 28.6 µM) against S. typhimurium.

With `CCCS(=O)(=O)N1N=Cc2ccccc2B1O` [Compound 2], the MIC worked out at 8 µg/mL (≈ 31.7 µM) with Klebsiella aeruginosa [1]; 4 µg/mL (≈ 15.9 µM) in the experiment on E. coli [2]; 32 µg/mL (≈ 127 µM) against Proteus mirabilis [3]; 32 µg/mL (≈ 127 µM) in the experiment with Proteus vulgaris [4]; 16 µg/mL (≈ 63.5 µM) in the experiment on S. typhimurium. Also, the ED50 came out at 11.3 mg/kg in the experiment with Klebsiella pneumoniae (po); 6.75 mg/kg in the experiment on Klebsiella pneumoniae (sc); 18.7 mg/kg in the experiment with B. proteus (per oral (p.o.)); 11.7 mg/kg in the experiment with B. proteus (sc, subcutaneous (s.c.)); 7 mg/kg with E. coli [5] (setting [9]); 6.7 mg/kg in the experiment on E. coli [5] (setting [10]).

For the compound `O=S(=O)(CCl)N1N=Cc2ccccc2B1O` [Compound 7], the ED50 in the experiment with E. coli [5] (setting [9]) worked out at 12.4 mg/kg; with E. coli [5] (setting [10]), 11.8 mg/kg.

Regarding `CC(C)CS(=O)(=O)N1N=Cc2ccccc2B1O` [drawing 4], the MIC against Klebsiella aeruginosa [1] worked out at 4 µg/mL (≈ 15 µM); against E. coli [2] it was 8 µg/mL (≈ 30.1 µM); in the experiment with Proteus mirabilis [3], 16 µg/mL (≈ 60.1 µM); against Proteus vulgaris [4], 16 µg/mL (≈ 60.1 µM); against S. typhimurium it was 4 µg/mL (≈ 15 µM).

On to `CC(C)S(=O)(=O)N1N=Cc2ccccc2B1O` [Compound 3], for which the ED50 amounted to 12.5 mg/kg in the experiment on E. coli [5] (setting [9]) and 9.2 mg/kg in the experiment with E. coli [5] (setting [10]).

For the compound `CC(Cl)S(=O)(=O)N1N=Cc2ccccc2B1O` (stereo not shown) [Compound 8], the ED50 in the experiment with E. coli [5] (setting [9]) was found to be 17.7 mg/kg; in the experiment with E. coli [5] (setting [10]), 14.8 mg/kg.
